The test system of assay [1] is insulin-resistant C2C12 myotubes. The assay is described as follows: 2-Deoxy-D-glucose uptake, insulin-resistant C2C12 myotubes. In kind it is cell-based, mouse. The conditions noted are these: 0.6 mM palmitate; 100 nM insulin. The method, then: (§1) Skeletal muscle is the primary site of glucose metabolism, accounting for approximately […] of the entire body’s glucose uptake in the presence of insulin [22]. […] The effect of PEG-BHD1028 on glucose uptake in insulin-resistant C2C12 skeletal muscle cells was evaluated. To induce insulin resistance, differentiated C2C12 myotubes were treated with 0.6 mM palmitate and incubated for 16 h and then treated with 100 nM insulin and PEG-BHD1028 at concentrations of 100 and 500 nM for 30 min.
(§2) The 2-DG uptake of C2C12 cells was measured using the Glucose Uptake Assay Kit (Colorimetric, Ab136955, Abcam, Cambridge, UK) according to the manufacturer’s instruction. Palmitate to induce insulin resistance was prepared with minor modifications from the previous description. Briefly, palmitate was dissolved in 0.1 M NaOH to a concentration of 20 mM by heating at 75 °C and the dissolved solution was then diluted with 5% fatty acid-free bovine serum at a stock solution of 6 mM at 55 °C. Cells were treated with 0.6 mM palmitate overnight. The fixed cells were washed three times with DPBS, followed by incubation in Krebs-Ringer-Phosphate-Hepes (KRPH) buffer containing 2% fatty acid free-BSA for 40 min. […] Absorbance was measured using an Epoch microplate reader (BioTek Instruments, Inc., Winooski, VT, USA) at 412 nm.

Another assay has as its system C2C12 myotubes. The assay is described as follows: 2-Deoxy-D-glucose uptake, non-resistant C2C12 myotubes. As to conditions: 100 nM insulin. In kind it is cell-based, mouse. The method, then:
as §1, §2

For assay [2] the following is noted: via AMPK, after binding to AdipoR1 and AdipoR2 in the hypothalamus; cited from earlier work. The text has this:
Besides the effect on the amelioration of insulin resistance, it has been widely known that adiponectin induces weight loss through fatty acid oxidation and energy expenditure. At the molecular level, adiponectin activates 5’ AMP-activated protein kinase (AMPK) and peroxisome proliferator-activated receptor alpha (PPARα) signal pathways. AMPK pathway ultimately enhances mitochondrial biogenesis and fatty acid β-oxidation, and the activated PPARα promotes uptake, utilization, and catabolism of fatty acids by upregulating the genes involved in fatty acid transport, fatty acid-binding ...

In a further assay the test system is diabetic swine. The conditions noted are these: cited from earlier work. From the text: It has also been well accepted that adiponectin alleviates insulin resistance, and adiponectin deficiency leads to abnormal glucose metabolism. Thus, insulin resistance has been recognized as the most fundamental root cause of type 2 diabetes mellitus, and the concentration of circulating adiponectin is negatively correlated with insulin resistance. […] Recent studies also have shown that p38 MAPK acts as an essential mediator in regulating adiponectin-induced ...

For insulin: insulin, in assay [1], the “glucose uptake, insulin-resistant cells, insulin alone” value is “not observed”. Further, the “glucose uptake, non-resistant cells, insulin alone” value in the assay with C2C12 myotubes is reported as “significantly increased”.

B1: adiponectin: hormone, endogenous ligand of AdipoR1 and AdipoR2 (protein, UniProt Q15848 19-244, looked up)
Adiponectin: ETTTQGPGVLLPLPKGACTGWMAGIPGHPGHNGAPGRDGRDGTPGEKGEKGDPGLIGPKGDIGETGVPGAEGPRGFPGIQGRKGEPGEGAYVYRSAFSVGLETYVTIPNMPIRFTKIFYNQQNHYDGSTGKFHCNIPGLYYFAYHITVYMKDVKVSLFKKDKAMLFTYDQYQENNVDQASGSVLLHLEVGDQVWLQVYGEGERNGLYADNDNDSTFTGFLLYHDTN
For B1, the appetite result in assay [2] is “induced appetite”. Besides, the “glucose metabolism / insulin sensitivity” value in the assay with diabetic swine is “enhanced glucose metabolism by improving insulin sensitivity”.
